Test results: patent publication US8455398B2, “Amide compounds, preparation methods and uses thereof” (Sinochem Corporation, priority 2008, dated 2013)

Experiments:
[1] = tested on: cucumber anthracnose; assay: Fungicidal activity in vivo, cucumber anthracnose; details: plants sprayed, inoculated after 24 hours
Procedure: (§1) Determine the fungicidal activities of the compounds of the present invention against plant diseases, carried by following procedure:
(§2) Determination of Fungicidal Activity In Vivo:
(§3) Compounds were dissolved in acetone, and diluted to required concentration with water containing 0.1% of tween 80. Plants were sprayed by a sprayer. After 24 hours, plants were innoculated and then transferred into a dew chamber for infection. After the infection period normally one week), the plants were scored for disease control.

[2] = tested on: lesser army worm (Spodoptera exiqua); assay: Insecticidal activity, spray test, lesser armyworm; type: in vivo; details: mortality after two to three days
Procedure: (§4) Determination of insecticidal and acaricidal activity of selected compounds were carried out by following procedure:
(§5) Compounds were dissolved in mixed solvent (acetone:methanol=1:1), and diluted to required concentration with water containing 0.1% of tween 80.
(§6) The armyworm (Leucania separata), the second stage Juvenile of diamond backmoth (Plutella xylostella), lesser army worm (Spodoptera exiqua), green peach aphids (Myzus persicae) and mite (Tetranychus cinnabarinus) were used in biological test. The test was employed either spraying by airbrush. A test solution (0.5 ml) was sprayed at the pressure of 10 psi (0.7 kg/cm^2). Percent mortality was determined after two to three days.

[3] = tested on: diamond backmoth (Plutella xylostella); assay: Insecticidal activity, spray test, diamond backmoth; type: in vivo; details: 600 ppm, mortality after two to three days
Procedure: as §4, §5, §6

[4] = tested on: plant diseases; assay: Fungicidal activity in vivo against plant diseases (overall); details: 400 ppm
Procedure: as §1, §2, §3

| Structure (SMILES) | control of lesser armyworm ([2]; 600 ppm) [%] | control of diamond backmoth [3] [%] | further results |
| --- | --- | --- | --- |
| Cc1cc(C(=O)NCCNc2ncc(C#N)cc2Cl)ccc1NC(=O)c1cc(Br)nn1-c1ncccc1Cl [83 in Table 96] |  |  | control of cucumber anthracnose ([1]; 400 ppm): 100% |
| Cc1cc(Cl)cc(C(=O)NCCCNc2ncc(C#N)cc2Cl)c1NC(=O)c1cc(Br)nn1-c1ncccc1Cl [Table 182-199] | 100 | 100 |  |
| Cc1cc(Cl)cc(C(=O)NCCCNc2ncc(Cl)cc2Cl)c1NC(=O)c1cc(Br)nn1-c1ncccc1Cl [Table 211-199] | 100 | 100 | control of lesser armyworm ([2]; 10 ppm): 100% |
| Cc1cc(Cl)cc(C(=O)N2CCN(c3ncc(C(F)(F)F)cc3Cl)CC2)c1NC(=O)c1cc(Br)nn1-c1ncccc1Cl [Table 181-303] | 100 | 100 |  |
| Cc1cc(Cl)cc(C(=O)NCCNc2ccc(C(F)(F)F)cc2Cl)c1NC(=O)c1cc(Br)nn1-c1ncccc1Cl [Table 173-83] | 100 | 100 |  |
| Cc1cc(Cl)cc(C(=O)N2CCN(c3ncccc3Cl)CC2)c1NC(=O)c1cc(Br)nn1-c1ncccc1Cl [Table 179-303] | 100 | 100 |  |
| Cc1cc(Cl)cc(C(=O)NCCCNc2ncccc2Cl)c1NC(=O)c1cc(Br)nn1-c1ncccc1Cl [Table 179-199] | 100 | 100 |  |
| Cc1cc(Cl)cc(C(=O)NC(C)CNc2ncc(C(F)(F)F)cc2Cl)c1NC(=O)c1cc(Br)nn1-c1ncccc1Cl (centres unmarked) [Table 181-304] | 100 | 100 |  |
| Cc1cc(Cl)cc(C(=O)NCCCNc2ncc(C(F)(F)F)cc2Cl)c1NC(=O)c1cc(Br)nn1-c1ncccc1Cl [Table 181-199] | 100 | 100 | control of lesser armyworm ([2]; 1 ppm): 100%; control of lesser armyworm ([2]; 10 ppm): 100% |
| Cc1cc(Cl)cc(C(=O)NCCNc2ncc(C#N)cc2Cl)c1NC(=O)c1cc(Br)nn1-c1ncccc1Cl [Table 182-83] | 100 | 100 |  |
| Cc1cc(Cl)cc(C(=O)NCCNc2ncccc2Cl)c1NC(=O)c1cc(Br)nn1-c1ncccc1Cl [Table 179-83] | 100 | 100 |  |
| Cc1cc(Cl)cc(C(=O)NC(C)CNc2ncccc2Cl)c1NC(=O)c1cc(Br)nn1-c1ncccc1Cl (centres unmarked) [Table 179-304] | 100 | 100 | control of cucumber anthracnose ([1]; 50 ppm): 100%; control of cucumber anthracnose ([1]; 400 ppm): 100%; control of lesser armyworm ([2]; 1 ppm): 100%; control of lesser armyworm ([2]; 10 ppm): 100% |
| Cc1cc(Cl)cc(C(=O)NCCNc2ncc(C(F)(F)F)cc2Cl)c1NC(=O)c1cc(Br)nn1-c1ncccc1Cl [Table 181-83] | 100 | 100 | control of cucumber anthracnose ([1]; 50 ppm): 100%; control of cucumber anthracnose ([1]; 400 ppm): 100%; control of lesser armyworm ([2]; 0.1 ppm): more than 60%; control of lesser armyworm ([2]; 1 ppm): 100%; control of lesser armyworm ([2]; 10 ppm): 100% |
| CNC(=O)c1cc(Cl)cc(C)c1NC(=O)c1cc(Br)nn1-c1ncccc1Cl [chlorantraniliprole] |  |  | fungicidal activity [4]: no fungicidal activity |
| Cc1cc(Cl)cc(C(=O)NCCNc2ncc(Cl)cc2Cl)c1NC(=O)c1cc(Br)nn1-c1ncccc1Cl [Table 211-83] | 100 | 100 | control of cucumber anthracnose ([1]; 400 ppm): 100% |
